The results in this text go back to patent US20220296565A1, “Pharmaceutical compositions of Ovatodiolide and the use thereof” (priority 2019, published 2022).

The test system of assay [1] is UT-SCC 60A patient derived HPV positive Head and Neck cancer cells. Put plainly: MTT assay, UT-SCC 60A. The format is cell-based, human. The settings on record: 72 h. The method, then:
(§1) The MTT assay is a colorimetric assay widely used to study cell viability. It is based on the ability of NAD(P)H-dependent cellular oxidoreductase enzymes to reduce the MTT tetrazolium dye. The cells were treated with 0, 5, 10, 20 & 40 μM of OVT & AA for 72 h and then MTT was added and cytotoxicity was analyzed by a plate reader.
(§2) HPV-positive cervical cancer cells, SiHa, Hela cells, patient-derived HPV positive head and neck cancer cells and non-cancer human fibroblasts were treated with OVT at the dose range of 0, 5, 10, 20 and 40 μM and subjected to MTT assay and IC50 values were determined.

Assay [2] concerns UT-SCC 65 patient derived HPV positive Head and Neck cancer cells. Put plainly: MTT assay, UT-SCC 65. The format is cell-based, human. The settings on record: UT-SCC 65, 72 h. The method, then:
as §1, §2

Assay [3] deals with UT-SCC 69 patient derived HPV positive Head and Neck cancer cells. Kind of assay: MTT assay, UT-SCC 69. Type of assay: cell-based, human. Conditions: UT-SCC 69, 72 h. The method, then: as §1, §2
(Formazan colour is commonly taken as a measure of viable cells.)

Assay [4] concerns HeLa HPV 18 positive cervical cancer cells. Put plainly: MTT assay, HeLa cells. Conditions: 72 h. Type of assay: cell-based, human. The method, then:
(§3) SiHa and HeLa cervical cancer cells and Human Dermal Fibroblasts (HDF) were cultured in DMEM (Sigma-Aldrich, St Louis, Mo., USA). The medium was supplemented with 10% fetal calf serum (BioClear, Wiltshire, UK), 2 mM L-glutamin, 100 U/ml penicillin, 100 μg/ml streptomycin (Sigma-Aldrich).
as §1, §2

In assay [5] the test system is SiHa cells. Kind of assay: Phase contrast microscopy of SiHa cells. Type of assay: cell-based, human. Conditions: 40 μM. From the text:
In order to examine the mechanism underlying the previously reported cytotoxicity of OVT, we investigated if OVT would induce apoptotic death of cultured SiHa cervical cancer cells.

For assay [6], the system named is SiHa HPV 16 positive cervical cancer cells. Kind of assay: MTT assay, SiHa cells. Conditions: 72 h. Type of assay: cell-based, human. The method, then: as §3, §1, §2
Assay [7] concerns K74 primary skin fibroblast cells. Kind of assay: MTT assay, K74 fibroblasts. Type of assay: cell-based, human. Conditions: 72 h. The method, then: as §1, §2
Assay [8] deals with UT-SCC 102 patient derived HPV positive Head and Neck cancer cells. Put plainly: MTT assay, UT-SCC 102. Type of assay: cell-based, human. The settings on record: UT-SCC 102, 72 h. The method, then:
as §1, §2

Assay [9] has as its system UT-SCC 60B patient derived HPV positive Head and Neck cancer cells. Put plainly: MTT assay, UT-SCC 60B. Type of assay: cell-based, human. The settings on record: 72 h. The method, then: as §1, §2
The test system of assay [10] is SiHa cells. Put plainly: Activated caspase-3 by flow cytometry. Type of assay: cell-based, human. The method, then: SiHa cells were treated with 0, 20 & 40 μM AA or OVT or solvent control for 24 & 48 h. Activated caspase-3 in cells was labeled with phyco-erythrin-conjugated antibody according to manufacturer's protocol (PE Active Caspase-3 Apoptosis Kit; BD Pharmingen, San Diego, Calif.) and analyzed by FACSCalibur flow cytometer (FL-2, FSC, BD Pharmingen).
We then incubated the cells with 0, 20 & 40 μM AA & OVT 24 and 48 hours, and determined the percentage of cells that contained activated caspase-3 as a measure of apoptosis.
On the technique in general: In flow cytometry, cells or beads pass a laser one at a time.

The test system of assay [11] is SiHa cells. Kind of assay: Cell-IQ high content imaging, proliferation of SiHa. The format is cell-based, human. The settings on record: various doses, till 72 h. The method, then:
(§4) SiHa cells—HPV 16 positive cervical cancer cell line; HeLa—HPV 18 positive cervical cancer cell line. […] Numbers 1-6 on the x-axis indicate 12 h intervals. The area of the plate that cells cover is indicated on the y-axis (arbitrary number of units).
(§5) The Cell-IQ Real-time imaging provides information on how the compounds are affecting cell morphology and cell proliferation at various doses up to 72 h. A rigorous image analysis protocol was developed to assess the effects of the compounds on cell proliferation.
(§6) The cells were imaged by high content imaging in Cell-IQ and the proliferation of the cells was observed till 72 h.

Assay [12] deals with K87 primary skin fibroblast cells. Put plainly: MTT assay, K87 fibroblasts. The format is cell-based, human. The settings on record: 72 h. The method, then: as §1, §2
For assay [13], the system named is SiHa cells. Kind of assay: Western blotting of SiHa cell lysates. Type of assay: cell-based, human. The method, then:
Whole cell lysates were prepared by lysing the cells in Laemmli sample buffer (Laemmli, 1970) and boiling the samples for 10 min after which proteins were separated in 12.5-15% SDS-PAGE. Western blotting was performed using antibodies against caspase 3 (Cell Signaling), HPV16 E6, E7 (Santa Cruz Biotechnology, Inc, Santa Cruz, Calif.), and […] (clone AC-40; Sigma-Aldrich). Horseradish peroxidase-conjugated secondary antibodies were obtained from Southern Biotechnology Associates (Birmingham, Ala.), Promega (Madison, Wis.) and Amersham Biosciences (Freiburg, Germany). The results were visualized using the ECL method (Amersham Biosciences) on X-ray film. The presented Western blot results are representative of at least three independent experiments. SiHa cervical cancer cells have been transformed by high-risk human papillomavirus (HPV). As E6 and E7 play such critical roles in SiHa cell transformation, the expression of these viral proteins was examined.
(Immunoblotting shows a protein as a band on a membrane.)

Assay [14] deals with HeLa cells. Kind of assay: Cell-IQ high content imaging, proliferation of HeLa. Type of assay: cell-based, human. Conditions: various doses, till 72 h. The method, then:
as §4, §5, §6

The subject of assay [15] is non-cancer human fibroblast cells. Kind of assay: MTT assay, non-cancer human fibroblasts. Type of assay: cell-based. The settings on record: 72 h. The method, then:
as §1, §2

As for Ovatodiolide, the IC50 (as a rule, the concentration that gives 50% inhibition) turned out to be 5.53 µM in [1]; 14.1 µM in assay [2]; 0.859 µM in assay [3]; 10.7 µM in assay [4]; 10.7 µM in [6]; 13.2 µM in assay [7]. In addition, the IC50 was 7.73 µM in assay [8], 3.33 µM in assay [9] and 19.7 µM in assay [12]. For the same compound, the “cell death in SiHa cells” value in [5] is given as “induced cell death”. Further, the “effect on cell morphology” value in assay [5] (72 hours, SiHa) was “clear effect on cell morphology”. In addition, in [10] (20 μM, after 24 h, compared with 40 μM AA after 48 h), the “activation of caspase-3” value is listed as “higher activation”. In addition, in [10] (40 μM, after 48 h), the “activation of caspase-3 compared to AA at the same concentration” value is on record as “almost doubled”. For the same compound, the cell proliferation result in [11] and in [14] was “inhibited the cell proliferation” each time. Moreover, the “cleavage of caspase-3” value in assay [13] (20-40 μM) was “induced the cleavage”. In addition, in assay [13] (Western blot), the “HPV E6 and E7 viral proteins” value was “downregulation”. The cIAP2 protein level entry in assay [13] (Western blot) is reported as “downregulation”.

Take `C=C1C(=O)OC2/C=C(/C)CC/C=C(\C(=O)O)CC/C=C(\C)CCC12` (stereo not drawn) [Anisomelic acid (AA), Anisomelic acid, reference compound]: the IC50 in assay [1] amounted to 18 µM; in assay [2] it was 42.8 µM; in assay [3] it was 23.9 µM; in assay [4] it was 33.2 µM; in assay [6] it was 32.1 µM; in [8], 28.2 µM. Also, half-maximal inhibition in [9] (IC50) was put at 22.8 µM. Further, the “activation of caspase-3” value in [10] (40 μM, after 48 h) is recorded as “marked activation”. In addition, the “toxicity to non-cancer human fibroblast cells” value in [15] is “not toxic at all”.
